Data taken from patent US6894075B2, “4′-demethyl-4′-O-substituted-1-deoxypodophyllotoxin derivative and geometric isomer thereof, process for the preparation thereof and anti-cancer composition comprising the same” (priority 2000, dated 2005).
“And” between values parts separate entries of the source, which are not always exact repeats. Identical values can stand only once.

Experiments:
A549 cell = assay: Cytotoxicity test (SRB method) for A549 cells; format: cell-based, human; conditions: for EC50: A549 human lung cancer cell, SRB, read-out: ED50(nM) for A549; for EC50 / ED50(mg/mL) for A549: 48 hours incubation; for ED50(mg/mL) for A549: A549, SRB, Table 2
Source text: (§1) Human lung carcinomas A549 and […] were used for determining cytotoxicity of the compounds of the present invention according to the Sulfrhodamine-B (SRB) method which was developed by NCI in 1989 in order to determine in vitro anticancer activity of drugs.
(§2) Cells to be used in the experiment were separated from a surface using 0.5% Trypsin-EDTA solution and suspended in a density of 5×10^4 cell/ml therein. The cell suspension was introduced into a 96-well plate in an amount of 180/well and incubated for 24 hours in a 5% CO2 incubator of 37° C. Samples were dissolved in dimethylsulfoxide and then diluted by water distilled in advance for three times just before the experiment. Forty-one (41) samples were prepared into 4 types of final concentrations, i.e., 0.1, 0.03, 0.01 and 0.003 mg per ml of the medium. The diluted sample solutions were added to the 96-well plate in the amount of 20 μl/well and incubated for 48 hours in a CO2 incubator of 37° C. At the time of adding the samples, Tz (Time zero) plate was taken. The medium was removed from the Tz plate and each of the plates after incubation were completed. Ten (10)% […] (TCA) was added in the amount of […], and allowed to stand for 1 hour at 4° C. to fix the cells on the bottom surface of the plate. After the cells were fixed, the plate was washed five to six times with water to completely remove the remaining TCA solution and then dried at room temperature to completely remove the moisture. To the fully dried plate was introduced a dye solution in the amount of […] in which 0.4% SRB was dissolved in 1% acetic acid solution. […] After the dyeing process, the plate was dried again at room temperature. 100 ml of 10 mM Tris solution was added thereto in order to dissolve the dye, and then O.D. (optical density) was determined by microplate reader at 520 nm.
(§3) ED50 values for cancer cells were calculated as follows. The amount of SRB protein was analyzed at the time when incubation started by the addition of the sample. This amount was named time zero (Tz). The O.D. value obtained from a group which was not treated by the sample was named Control group (C) and the O.D. value obtained from a group which was treated by the sample was named Test group (T).
(§4) The degree of cytotoxicity of the compounds was calculated from Tz, C and T values according to the following equation.
(§5) That is, in the case of Tz≧T, the degree was calculated by
(§6) (T−Tz)/(C−Tz)×100(%), and
(§7) • in the case of Tz<T, the degree was calculated by […].
(§8) From the values thus obtained, ED50 value which is defined as the concentration at which growth of the cancer cell is inhibited by 50% was calculated using the regression function of Excel program.

[1] = tested on: Lewis Lung Cancer Cell (LLC); assay: Anti-cancer test for BDF1 mouse transplanted by Lewis Lung Cancer Cell, Experiment 2-1 (formulae 1a, 1b); format: in vivo; conditions: peritoneal injection 0.06 mmole/kg/day at days 1, 2, 4, 7, 8 (etoposide 36 mg/kg), cancer volume at 14 to 16 days
Source text: In order to evaluate the anti-cancer activity of the compounds of the present invention, LLC, which is a lung cancer cell of mouse, was transplanted into the hypodermic region of BDF1 mouse to induce a solid cancer. […] Experiment for the compounds of formulae (1a) and (1b) and that for the compound of formula (1c) were separately carried out.
Male BDF1 mouse (Weight 18 to 25 g), being in good health and purchased from Korea Biolink Co., was used as a test animal.
The mice were bred at a place controlled to the temperature of 23 to 24° C. while provided with water and feed ad libitum. As the feed, feed for mouse containing no antibiotics was used. The hypodermic tissue of C57BL/6 mouse, which includes cells cultured therein for 14 days, was taken up. Sterilized cold physiological saline was added to the tissue in the amount of 5 ml/g tissue to make a cell suspension. This cell suspension of 0.2 ml was transplanted into the hypodermic region of armpit of BDF1 mouse.
(§9) Each group includes 5 mice. After 24 hours from the transplantation, each test compound of formulae (1a) and (1b) was dissolved in 4% Tween 80 and injected peritoneally in the amount of 0.2 ml and in a concentration of 0.06 mmole/kg/day (that is, 0.06 mmole of each test compound was dissolved in 10 ml of 4% Tween 80, and then 0.2 ml of the resulting solution was peritoneally injected into a mouse). Only 4% Tween 80 was injected for the negative control group, and the same moles of etoposide (36 mg/kg) was injected for the positive control group. The injection was performed five times at 1, 2, 4, 7 and 8 days from the transplantation of cancer.
The anti-cancer effect was determined by measuring the volume of cancer of the control and test groups at 14 to 16 days from the administration of drugs and then calculated as follows. Volume of Cancer(mm^3)=Length(mm)×Width^2(mm^2)/2 Suppression Rate of Cancer Growth(%)=(C−T)×100(%)/C in which • C represents the average volume of cancer (mm^3) of the control group, and • T represents the average volume of cancer (mm^3) of the test group.

[2] = Weight change in the period of drug administration; format: in vivo, mouse; conditions: for Weight of mouse, Day 1: Day 1 from the cancer cell transplantation; for Weight of mouse, Day 2: Day 2 from the cancer cell transplantation; for Weight of mouse, Day 3: Day 3 from the cancer cell transplantation; for Weight of mouse, Day 4: Day 4 from the cancer cell transplantation; for Weight of mouse, Day 5: Day 5 from the cancer cell transplantation; for Weight of mouse, Day 6: Day 6 from the cancer cell transplantation; for Weight of mouse, Day 7: Day 7 from the cancer cell transplantation; for Weight of mouse, Day 8: Day 8 from the cancer cell transplantation
Method: as §9
As an index of toxicity, the weight change during the period of drug administration was recorded for the compounds of formulae (1a) and (1b) compared with the comparison compound of Etoposide.

SK-MEL-2 cell = assay: Cytotoxicity test (SRB method) for SK-MEL-2 cells; format: cell-based, human; conditions: SK-MEL-2, SRB, 48 hours incubation
Source text: as §1, §2, §3, §4, §5, §6, §7, §8

SMILES	cytotoxicity compared with DPT (A549 cell; A549, in words)	EC50 (A549 cell) [nM]	Suppression Rate for LLC [1]	Weight of mouse, Day 1 [2] [g]	Weight of mouse, Day 2 [2] [g]	Weight of mouse, Day 3 [2] [g]	Weight of mouse, Day 4 [2] [g]	Weight of mouse, Day 5 [2] [g]	Weight of mouse, Day 6 [2] [g]	Weight of mouse, Day 7 [2] [g]	Weight of mouse, Day 8 [2] [g]	weight loss ([2]; compared with the control group, 8 days)	ED50(mg/mL) for A549 (A549 cell) [mg/mL]	ED50(mg/mL) for SK-MEL-2 (SK-MEL-2 cell) [mg/mL]
COc1cc(C2c3cc4c(cc3CC3COC(=O)C32)OCO4)cc(OC)c1OC(=O)C(N)CC(C)C (centres unmarked) [Compound 1a-2, 4′-demethyl-4′-O-leucinoyl-1-deoxypodophyllotoxin]	stronger cytotoxicity than DPT	68	88%	23.3	24.3	25	26.1	26	25	25.3	26.1			
COc1cc(C2c3cc4c(cc3CC3COC(=O)C32)OCO4)cc(OC)c1OC(=O)CCN (centres unmarked) [Compound 1a-10, 4′-demethyl-4′-O-(3-aminopropanoyl)-1-deoxypodophyllotoxin]		96.7	78%	22.9	24.1	25	25.1	25.5	25.3	25	25.3			
COc1cc(C2c3cc4c(cc3CC3COC(=O)C32)OCO4)cc(OC)c1OC(=O)CCCN (centres unmarked) [Compound 1a-11, 4′-demethyl-4′-O-(4-aminobutanoyl)-1-deoxypodophyllotoxin]		91.6	82%	22.8	24	24.2	25	24.4	25.4	25.4	25.5			
COc1cc(C2c3cc4c(cc3CC3COC(=O)C32)OCO4)cc(OC)c1OC(=O)CCCCN (centres unmarked) [Compound 1a-12, 4′-demethyl-4′-O-(5-aminopentanoyl)-1-deoxypodophyllotoxin]		90.3	82%	22.8	24.2	25	25.4	24.8	26	25.8	26.2			
COc1cc(C2c3cc4c(cc3CC3COC(=O)C32)OCO4)cc(OC)c1OC(=O)CCCCCN (centres unmarked) [Compound 1a-13, 4′-demethyl-4′-O-(6-aminohexanoyl)-1-deoxypodophyllotoxin]		88.5	85% and 85.5%	23	24.2	25	25.2	25	25.5	26	26.2			
COc1cc(C2c3cc4c(cc3CC3COC(=O)C32)OCO4)cc(OC)c1OC(=O)CCCCCCN (centres unmarked) [Compound 1a-14, 4′-demethyl-4′-O-(7-aminoheptanoyl)-1-deoxypodophyllotoxin]		79.6	90%	23	23.8	21.6	26	22.3	22.8	22.8	22.5	about 0.5 g/mouse		
COc1cc(C2c3cc4c(cc3CC3COC(=O)C32)OCO4)cc(OC)c1OC(=O)CCCCCCCN (centres unmarked) [Compound 1a-15, 4′-demethyl-4′-O-(8-aminooctanoyl)-1-deoxypodophyllotoxin]		74.2	34.5%											
COc1cc(C2c3cc4c(cc3CC3COC(=O)C32)OCO4)cc(OC)c1OC(=O)NC(C)C (centres unmarked) [Compound 1b-2, 4′-demethyl-4′-O-isopropylcarbamoyl-1-deoxypodophyllotoxin]		153	90% and 90.1%	22.8	23.6	23.2	25	25	26.1	26	26			
COc1cc(C2c3cc4c(cc3CC3COC(=O)C32)OCO4)cc(OC)c1OC(=O)CCCCCCCCCCC(=O)O (centres unmarked) [Compound 1c-36, 4′-demethyl-4′-O-(11′-carboxy-undecanoyl)-1-deoxypodophyllotoxin]													0.046	0.068
COc1cc(C2c3cc4c(cc3CC3COC(=O)C32)OCO4)cc(OC)c1OC(=O)CCCCCCCCCCCCC(=O)O (centres unmarked) [Compound 1c-37, 4′-demethyl-4′-O-(13′-carboxy-tridecanoyl)-1-deoxypodophyllotoxin]													0.019	0.070
COc1cc(C2c3cc4c(cc3CC3COC(=O)C32)OCO4)cc(OC)c1OC(=O)CCCCCCCCCCCCCCC(=O)O (centres unmarked) [Compound 1c-38, 4′-demethyl-4′-O-(15′-carboxy-pentadecanoyl)-1-deoxypodophyllotoxin]													0.106	0.027
